Assays:
Format in all cases: physicochemical
[1] = IFT between surfactant solutions and reservoir crude oil at ambient conditions (spinning drop); conditions: ~0.1 wt % in blank brine
Protocol: Spinning drop method: The spinning drop method was utilized to measure ultra-low IFT values. The instrumentation included a KRÜSS Spinning Drop Tensiometer was employed and the spinning drop method was performed as follows. A crude oil droplet was launched from a capillary plug into a capillary tube filled with the surfactant solution. While the glass capillary tube was rotating, the software-controlled instrument measured the IFT between oil and brine by analyzing the drop shape which depends on the balance between interfacial and centrifugal forces. At low rotational speeds, the IFT is the dominating force and the droplet is spherical in shape. In this case the software uses Young-Laplace equation to calculate IFT. When the angular velocity is high, the droplet is elongated (length is at least 4 times the diameter) and Vonnegut's equation is used to calculate the IFT.
(§1) Measurement of the IFT between surfactant solutions/reservoir oil at ambient conditions were first performed to, e.g., examine the impact of the hydrophobic chain length on the interfacial properties of cationic surfactants. For these measurements, a KRÜSS Spinning Drop Tensiometer was used.

[2] = Density difference between surfactant solution and crude oil; conditions: ~0.1 wt % in blank brine vs reservoir crude oil; ambient conditions
Protocol: Density: The density of the two phases (oil and brine; or oil and surfactant solution) was measured at atmospheric pressure and 22° C. using a DMA45 density meter from Anton Paar. The density of the two phases was also measured at reservoir conditions (120° C., 6000 psi) using an in-line density meter (DMA HPM, Anton Paar).
as §1

[3] = Critical micelle concentration by surface tension (pendant drop) at ambient conditions; conditions: surface tension against air
Protocol: Pendant drop method: The pendant drop method was mainly utilized when the density of the suspended phase is higher than that of the bulk phase. The same device as that used in the captive/rising bubble method is used for the pendant drop method. The method consists of a drop suspended from a needle to determine interfacial and surface tension of liquid/liquid and liquid/gas systems. The critical micelle concentration (CMC) of cationic surfactants was measured using surface tension measurements between the surfactant solutions and air at ambient conditions. […] Therefore, generally, the measurements were performed at a concentration above CMC (about 0.1 wt %), which is the one typically used in the field.
CMC measurements were performed to, e.g., investigate the effect of the hydrophobic chain length on the behavior of cationic surfactant molecules at the interface. […] As a baseline, the surface tension of blank brine was measured to be about 75.4 mN/m.
FIGS. 18A-18C show exemplary data for CMC measurements of surfactants with chloride heads and various alkyl chain lengths and depicting the variations of surface tension with concentration. Specifically, FIGS. 18A, 18B, and 18C show exemplary surface tension data for DTAC, CTAC, and TSAC.

[4] = Krafft and cloud point temperatures / solution cloudiness at ambient conditions; conditions: about 0.1 wt % in blank brine; for solution clarity/cloudiness (in words): about 22° C., ambient conditions
Protocol: Krafft and cloud point temperatures at ambient conditions: At ambient conditions, the Krafft point and cloud point temperatures were determined as follows. Fresh brine solutions containing about 0.1 wt % of surfactant solution were prepared and poured into 25 ml glass vials. The vials were capped and placed upright in a water bath and/or heater at an initial temperature of about 22° C. […] For each increment, it typically took at least 20 minutes for the brine to reach thermal equilibrium (temperature stabilization) with the water bath. The cloud and Krafft points were determined visually by recording the temperatures at which cloudiness was observed or disappeared. Images of the brine solutions were captured after each temperature stabilization.
The effect of the hydrophobic (alkyl) chain length on the stability and aqueous solubility/cloudiness of cationic surfactants was examined by measuring Krafft points at elevated pressure and temperature were performed. FIG. 15 is a series of exemplary images of solutions of cationic surfactants having a bromide head with increasing carbon atom numbers from left to right—DTAB (left panel), CTAB (center panel), and TODAB (right panel). For these tests, each surfactant was made into a surfactant solution (about 0.1 wt % in blank brine). The images were captured at about 22° C.
(left panel) and about 75° C. (right panel).
(§2) The cloud points of certain nonionic surfactants were measured at high pressure (about 6,000 psi) and temperature. […] (center panel) and about 99.9° C. (right panel), at a pressure of about 6,000 psi.

[5] = IFT between surfactant solutions and reservoir oil at reservoir conditions; conditions: about 100° C. and about 1,000 psi
Protocol: Captive/rising bubble method: The captive/rising bubble method was utilized to measure the dynamic IFT and contact angle at reservoir conditions. This method was performed as follows. The lighter phase was injected through a needle to form a bubble inside the heavier phase. The IFT between the two phases was calculated from the shape of the bubble using the Young-Laplace equation through Axisymmetric Drop Shape Analysis (ADSA). The state-of-the-art interfacial tension and contact angle (IFT/CA) apparatus adopted for the measurements is described and used by S. Saraji et al., Wettability of Supercritical Carbon Dioxide/Water/Quartz Systems: Simultaneous Measurement of Contact Angle and Interfacial Tension at Reservoir Conditions, Langmuir, 29 (2013) 6856-6866. This experimental setup can operate at elevated temperature (up to 200° C.) and pressure (up to 8000 psi). […] For contact angle measurement, a droplet was injected from the needle onto the solid substrate and monitored by capturing several images with time and analyzing them using ImageJ software.
Pendant drop method: The pendant drop method was mainly utilized when the density of the suspended phase is higher than that of the bulk phase. […] The critical micelle concentration (CMC) of cationic surfactants was measured using surface tension measurements between the surfactant solutions and air at ambient conditions. […]

[6] = Microemulsion phase behavior of surfactant solution/crude oil; conditions: for phase behavior (in words): about 0.1 wt % in blank brine/crude oil 1:1, about 80° C. versus ambient; for volume of surfactant phase formed between oil and brine: about 80° C.
Protocol: Microemulsion phase behavior: The microemulsion phase behavior of surfactants with different structures was investigated with respect to temperature. The effect of surfactant hydrophobic chain length on phase behavior was examined at ambient temperature (about 22° C.) and at elevated temperature (about 80° C.). For these experiments, glass pipettes were filled with brine/crude oil at a ratio of about 1:1 or surfactant solution/crude oil at a ratio of about 1:1. The pipettes were then sealed with a torch and shaken at the speed of about 250 rpm for about 24 hours (h). The pipettes were then monitored for several days and images were recorded.
Microemulsion phase behavior tests can generally be utilized to characterize surfactant stability. The phase behavior of surfactants can depend on distinct parameters such as temperature, surfactant concentration, and/or brine salinity. The effect of temperature on phase behavior was systematically investigated for various surfactants. Here, the phase behavior test was first performed on a pipette containing blank brine and the crude oil.
FIG. 13 is a series of exemplary images showing the phase behavior of cationic surfactants with a chloride head—TOAC, DTAC, CTAC, and TSAC—at ambient temperatures (left panel) and at about 80° C. (right panel). FIG. 14 is each a series of exemplary images showing the phase behavior of cationic surfactants with a bromide head—TOAB, DTAB, CTAB, and TODAB—at ambient temperatures (left panel) and at about 80° C. (right panel). For these tests, each surfactant was made into a surfactant solution (about 0.1 wt % in blank brine).

[7] = Krafft and cloud point temperatures at reservoir conditions (IFT cell, 6,000 psi); conditions: about 0.1 wt % in blank brine; about 6,000 psi
Protocol: as §2
(right panel), at a pressure of about 6,000 psi.

Compound | γ (interfacial tension surfactant solution/reservoir oil) [1] | Δρ (change in density) [2] | CMC [3] | solution clarity/cloudiness (in words) [4] | IFT reduction relative to the blank brine [5] | phase behavior (in words) [6] | volume of surfactant phase formed between oil and brine [6] | temperature at which the solution became and stayed clear ([4]; heated while stirring, ambient pressure) | Krafft point [7]
CCCCCCCCCCCCCCCC[N+](C)(C)C.[Br-] [CTAB, Hexadecyltrimethylammonium bromide] | 0.15 mN/m | 0.382 g/mL | – | – | – | – | – | – | –
CCCCCCCCCCCCCCCC[N+](C)(C)C.[Cl-] [CTAC, Cetyltrimethyl ammonium chloride] | 0.11 mN/m | 0.3834 g/mL | about 0.003 wt % | – | – | – | – | – | –
CCCCCCCCCCCC[N+](C)(C)C.[Br-] [DTAB, Dodecyltrimethylammonium bromide] | 1.1 mN/m | 0.3835 g/mL | – | – | – | – | – | – | –
CCCCCCCCCCCC[N+](C)(C)C.[Cl-] [DTAC, Dodecyltrimethylammonium chloride] | 1.6 mN/m | 0.3826 g/mL | about 0.005 wt % | – | – | – | – | – | –
CCCCCCCC[N+](C)(C)C.[Br-] [TOAB, Trimethyloctylammonium bromide] | 8.4 mN/m | 0.3823 g/mL | – | already clear at ambient conditions | about 7 mN/m | less influenced by temperature | – | – | –
CCCCCCCC[N+](C)(C)C.[Cl-] [TOAC, Trimethyloctylammonium chloride] | 5.05 mN/m | 0.3822 g/mL | – | clearest | – | less influenced by temperature | – | – | –
CCCCCCCCCCCCCCCCCC[N+](C)(C)C.[Br-] [TODAB, Trimethyloctadecylammonium bromide] | 0.07 mN/m | 0.3831 g/mL | – | – | – | poor solubility | about 0.1 cm^3 | – | –
CCCCCCCCCCCCCCCCCC[N+](C)(C)C.[Cl-] [TSAC, Trimethyloctadecylammonium chloride] | – | 0.3829 g/mL | about 0.001 wt % | cloudiest | – | poor solubility | about 0.1 cm^3 | about 75 °C | about 40 °C
